Laboratory results taken from publication PMC10180065, “Mechanistic Studies of Arene–Ruthenium(II) Complexes with Carbothioamidopyrazoles as Alternative Cancer Drugs” (Molecules, 2023).

Tests used:
[1] = test system: HT29; experiment: MTT cytotoxicity, HT29; assay type: cell-based, human; details: Homo sapiens, HT-29, 48 h incubation, read-out: Cytotoxic effect, IC50
Procedure: (§1) Cytotoxicity was evaluated against fifteen adherent human cancer cell lines using the MTT test: colorectal adenocarcinoma cells Caco2 (ATCC® HTB-37™), colorectal adenocarcinoma cells HT29 (ATCC® HTB-38™), colon colorectal carcinoma HCT116 (ATCC® CCL-247™), colon adenocarcinoma COLO205 (ATCC® CCL-222™), colorectal adenocarcinoma SW620 (ATCC® CCL-227™), colorectal adenocarcinoma grade IV LoVo (ATCC® CCL-229™), hepatocellular carcinoma Hep 3b (ATCC® HB-8064™), endometrium adenocarcinoma HEC1A (ATCC® HTB-112™), Ishikawa (99040201; Sigma–Aldrich Sigma, St. Louis, MO, USA), cervical adenocarcinoma cells HeLa (ATCC® CCL-2™), lung epithelial carcinoma A549 (ATCC® CRM-CCL-185™), breast epithelial adenocarcinoma cell positive for estrogen and progesterone receptors MCF7 (ATCC® HTB-22™) and negative for expression of estrogen receptor HCC38 (ATCC® CRL-2314™), acute promyelocytic leukemia HL-60 (ATCC® CCL-240™), skin melanoma WM115 (ATCC® CRL-1676™), and 1 suspension cancer cell line: acute lymphoblastic leukemia NALM6 (purchased from the German Collection of Microorganisms and Cell Cultures). HT29, NALM6, HCC-38 and HL-60 cells were cultured in RPMI 1640 medium (Thermo Fisher Scientific, Waltham, MA, USA) supplemented with 10% fetal bovine serum and antibiotic (gentamicin 25 μg ml^−1) (Gibco, Grand Island, New York, NY, USA). For the remaining tumor cell lines, Dulbecco’s minimal essential medium (DMEM, Lonza, Visp, Switzerland) supplemented with 10% fetal bovine serum and antibiotic instead of RPMI 1640 was used. In addition, Human Microvascular Endothelial Cells (HMEC1), which were obtained from the American Type Culture Collection (Manassas, VA, USA), were used as a model of normal cells. HMEC-1 were cultured in MCDB131 medium (Corning Life Sciences, Corning, NY, USA), supplemented with 10% fetal bovine serum, 10 ng/mL Epidermal Growth Factor (Millipore, Burlington, MA, USA) and 10 mM glutamine (Corning Life Sciences). All cells were grown at 37 °C in humidified atmosphere of 5% CO2 in air. The exponential growth of cells was maintained by regular passaging at 90% confluence three times a week using 0.025% trypsin/EDTA (Gibco, Grand Island, New York, NY, USA).
(§2) The cytotoxicity was tested by a standard MTT [3-(4,5-dimethylthiazol-2-yl)-2,5-diphenyltetrazolium bromide] (Sigma, St. Louis, MO, USA) microplate cell viability assay. The anticancer activity of the investigated compounds was evaluated in vitro on the basis of their ability to inhibit the proliferation of various cancer cells. Exponentially growing cells were seeded a day before the experiment into a 96-well microplate (Nunc, Roskilde, Denmark) at a density up to 6–8 × 10^3 cells/mL (depending on the cell line) and exposed to the test compounds at a wide range of concentrations for 48 h. Subsequently, various concentrations of the studied compounds (10^−7–10^−5 M) freshly prepared in DMSO (final concentration of <0.1% DMSO) and diluted with complete culture medium were added. After 48 h incubation, the cells were immediately subjected to a cell viability assay. At this time point, the number of viable cells in each well was estimated by the MTT test. Briefly, 50 µL (5 mg/mL final concentration) of MTT was added to each microplate well. This procedure was then followed by a three- to four-hour incubation at 37 °C. After incubation, MTT solution was replaced with 100 µL DMSO/well, which solubilized the formazan crystals formed by the dehydrogenases of metabolically active cells. Purple formazan absorbance was measured spectrophotometrically at 570 nm.

[2] = test system: Colo205; experiment: MTT cytotoxicity, Colo205; assay type: cell-based, human; details: Homo sapiens, COLO 205, 48 h incubation, read-out: Cytotoxic effect, IC50
Procedure: as §1, §2

[3] = test system: SW620; experiment: MTT cytotoxicity, SW620; assay type: cell-based, human; details: Homo sapiens, SW-620, 48 h incubation, read-out: Cytotoxic effect, IC50
Procedure: as §1, §2

[4] = test system: LoVo; experiment: MTT cytotoxicity, LoVo; assay type: cell-based, human; details: Homo sapiens, 48 h incubation, read-out: Cytotoxic effect, IC50
Procedure: as §1, §2

[5] = test system: Caco2; experiment: MTT cytotoxicity, Caco2; assay type: cell-based, human; details: Homo sapiens, Caco-2, 48 h incubation, read-out: Cytotoxic effect, IC50
Procedure: as §1, §2

[6] = test system: Hep 3b; experiment: MTT cytotoxicity, Hep 3b; assay type: cell-based, human; details: Homo sapiens, Hep3B, 48 h incubation, read-out: Cytotoxic effect, IC50
Procedure: as §1, §2

[7] = test system: HEC1A; experiment: MTT cytotoxicity, HEC1A; assay type: cell-based, human; details: Homo sapiens, HEC-1-A, 48 h incubation, read-out: Cytotoxic effect, IC50
Procedure: as §1, §2

[8] = test system: Ishikawa; experiment: MTT cytotoxicity, Ishikawa; assay type: cell-based, human; details: Homo sapiens, 48 h incubation, read-out: Cytotoxic effect, IC50
Procedure: as §1, §2

[9] = test system: Hela; experiment: MTT cytotoxicity, Hela; assay type: cell-based, human; details: Homo sapiens, 48 h incubation, read-out: Cytotoxic effect, IC50
Procedure: as §1, §2

[10] = test system: A549; experiment: MTT cytotoxicity, A549; assay type: cell-based, human; details: Homo sapiens, 48 h incubation, read-out: Cytotoxic effect, IC50
Procedure: as §1, §2

[11] = test system: HCC38; experiment: MTT cytotoxicity, HCC38; assay type: cell-based, human; details: Homo sapiens, 48 h incubation, read-out: Cytotoxic effect, IC50
Procedure: as §1, §2

[12] = test system: MCF7; experiment: MTT cytotoxicity, MCF7; assay type: cell-based, human; details: Homo sapiens, 48 h incubation, read-out: Cytotoxic effect, IC50
Procedure: as §1, §2

[13] = test system: WM115; experiment: MTT cytotoxicity, WM115; assay type: cell-based, human; details: Homo sapiens, WM-115, 48 h incubation, read-out: Cytotoxic effect, IC50
Procedure: as §1, §2

[14] = test system: NALM6; experiment: MTT cytotoxicity, NALM6; assay type: cell-based, human; details: Homo sapiens, NALM-6, 48 h incubation, read-out: Cytotoxic effect, IC50
Procedure: as §1, §2

[15] = test system: HL60; experiment: MTT cytotoxicity, HL60; assay type: cell-based, human; details: Homo sapiens, HL-60, 48 h incubation, read-out: Cytotoxic effect, IC50
Procedure: as §1, §2

[16] = Lipophilicity by RP-TLC; assay type: physicochemical; set-up: key: RM = log(1/Rf − 1), Rf = a/b; details: eluent AcCN: H2O at 30–70% v/v, 22 °C
Procedure: All the experimental solutions of standard substances (0.1 mg/mL) were prepared by dissolving ligands (1a–1d) or ruthenium complexes (2a/3a–2d/3d) in ethanol. Commercially-available octadecyl-modified silica aluminum sheets (20 × 20 cm) were cut into 5 × 10 cm plates. The plates were manually spotted with 1.0 μL of freshly prepared solutions using automatic pipets, 5 mm from each edge. The chromatograms for all compounds (1a/2a/3a–1d/2d/3d) were developed using a horizontal developing chamber and the solvent migration distance was about 4.5 cm. The plates were visually inspected under UV light at 254 nm. Each zone was clearly marked and its distance was manually measured. The RP-TLC analyses of lipophilicity were performed at ambient temperature (22 °C). In this experiment, all measurements were performed in triplicate and the obtained results were used in further calculations. The acetonitrile and water mixtures for ligands 1a–1d and arene–ruthenium(II) complexes 2a/3a–2d/3d were used as mobile phases, with […] content increasing in the range of 30–70% v/v, at 5% intervals. Values of the chromatographic retention coefficient Rf (as shown Formula (1)) and RM (as shown Formula (2)), based on received chromatograms, were calculated and converted as follows:(1) Rf=a/b (2) RM=log1/Rf−1

Row | Lipophilicity, RM [16] | Compound | IC50 [1] [µM] | IC50 [2] [µM] | IC50 [3] [µM] | IC50 [4] [µM] | IC50 [5] [µM] | IC50 [6] [µM] | IC50 [7] [µM] | IC50 [8] [µM] | IC50 [9] [µM] | IC50 [10] [µM] | IC50 [11] [µM] | IC50 [12] [µM] | IC50 [13] [µM] | IC50 [14] [µM] | IC50 [15] [µM]
1 | 2.32 | Cc1cc(C)n(C(N)=S)n1 [1a] | > 200 | > 200 | > 200 | > 200 | > 200 | > 200 | 111 ± 9.6 | 124 ± 4.8 | > 200 | > 200 | > 200 | > 200 | > 200 | > 200 | > 200
2 | 2.51 | CCc1cc(CC)n(C(N)=S)n1 [1b] | > 200 | > 200 | > 200 | > 200 | > 200 | > 200 | 114 ± 11.3 | 100 ± 4.6 | > 200 | > 200 | > 200 | > 200 | > 200 | > 200 | > 200
3 | 2.04 | NC(=S)n1nc(-c2ccccc2)cc1O [1c] | > 200 | > 200 | > 200 | > 200 | > 200 | > 200 | 110 ± 8.9 | 94 ± 2.4 | > 200 | > 200 | > 200 | > 200 | > 200 | 152 ± 26.7 | > 200
4 | 1.29 | Cc1cc(O)n(C(N)=S)n1 [1d] | > 200 | > 200 | > 200 | > 200 | > 200 | > 200 | 99.1 ± 5.7 | > 200 | > 200 | > 200 | > 200 | > 200 | 90.9 ± 10.2 | > 200 | > 200
